Measurements taken from US12157741B2, “Macrocyclic inhibitors of DYRK1A” (DANA-FARBER CANCER INSTITUTE, INC., priority 2018, dated 2024).
Read-outs that look alike come from different tables or passages of the source.

What was measured:
Assay type in all cases: binding
various enzymes [1] = biological target: various enzymes (Homo sapiens, UniProt Q9HCP0); conditions: compound 1 uM
Experimental: (§1) Ambit profiling was conducted in accordance with the manufacturer's instructions.

various enzymes [2] = biological target: various enzymes (Homo sapiens, UniProt P00519, F317L); conditions: compound 1 uM
Sequence of various enzymes (Homo sapiens, UniProt P00519, F317L) (P00519 whole entry F317L): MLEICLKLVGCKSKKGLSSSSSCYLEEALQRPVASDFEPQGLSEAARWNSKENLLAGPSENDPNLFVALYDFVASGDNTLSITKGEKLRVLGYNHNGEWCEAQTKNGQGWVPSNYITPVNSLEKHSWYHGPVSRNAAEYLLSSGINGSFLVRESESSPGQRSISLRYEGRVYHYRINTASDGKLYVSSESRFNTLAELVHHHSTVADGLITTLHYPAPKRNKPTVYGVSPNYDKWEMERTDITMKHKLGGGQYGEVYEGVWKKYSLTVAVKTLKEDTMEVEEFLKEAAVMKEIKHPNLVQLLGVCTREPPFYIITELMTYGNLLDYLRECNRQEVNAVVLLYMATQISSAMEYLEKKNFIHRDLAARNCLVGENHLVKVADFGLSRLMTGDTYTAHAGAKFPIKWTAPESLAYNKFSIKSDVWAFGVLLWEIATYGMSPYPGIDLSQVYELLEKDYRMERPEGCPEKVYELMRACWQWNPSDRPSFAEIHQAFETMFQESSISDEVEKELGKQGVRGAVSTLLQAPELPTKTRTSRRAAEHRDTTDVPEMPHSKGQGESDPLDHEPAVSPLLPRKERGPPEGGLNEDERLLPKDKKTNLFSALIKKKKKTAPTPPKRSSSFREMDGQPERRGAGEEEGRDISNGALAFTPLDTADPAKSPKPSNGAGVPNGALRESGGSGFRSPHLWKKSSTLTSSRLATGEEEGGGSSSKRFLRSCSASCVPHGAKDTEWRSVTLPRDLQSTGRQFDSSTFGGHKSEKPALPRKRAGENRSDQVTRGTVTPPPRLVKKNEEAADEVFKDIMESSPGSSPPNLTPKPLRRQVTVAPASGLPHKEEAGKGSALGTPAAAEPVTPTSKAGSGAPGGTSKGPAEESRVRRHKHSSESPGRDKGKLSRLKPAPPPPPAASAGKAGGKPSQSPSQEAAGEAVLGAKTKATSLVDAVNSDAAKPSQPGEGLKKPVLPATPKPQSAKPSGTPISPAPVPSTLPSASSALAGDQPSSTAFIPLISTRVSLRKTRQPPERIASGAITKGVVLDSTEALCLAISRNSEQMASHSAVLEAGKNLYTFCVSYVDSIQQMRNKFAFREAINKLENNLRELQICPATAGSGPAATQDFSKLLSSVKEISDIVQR
Experimental: as §1

various enzymes [3] = biological target: various enzymes (Homo sapiens, UniProt Q99759); conditions: compound 1 uM
Experimental: as §1

various enzymes [4] = biological target: various enzymes (Homo sapiens, UniProt Q14289); conditions: compound 1 uM
Sequence of various enzymes (Homo sapiens, UniProt Q14289) (Q14289 whole entry): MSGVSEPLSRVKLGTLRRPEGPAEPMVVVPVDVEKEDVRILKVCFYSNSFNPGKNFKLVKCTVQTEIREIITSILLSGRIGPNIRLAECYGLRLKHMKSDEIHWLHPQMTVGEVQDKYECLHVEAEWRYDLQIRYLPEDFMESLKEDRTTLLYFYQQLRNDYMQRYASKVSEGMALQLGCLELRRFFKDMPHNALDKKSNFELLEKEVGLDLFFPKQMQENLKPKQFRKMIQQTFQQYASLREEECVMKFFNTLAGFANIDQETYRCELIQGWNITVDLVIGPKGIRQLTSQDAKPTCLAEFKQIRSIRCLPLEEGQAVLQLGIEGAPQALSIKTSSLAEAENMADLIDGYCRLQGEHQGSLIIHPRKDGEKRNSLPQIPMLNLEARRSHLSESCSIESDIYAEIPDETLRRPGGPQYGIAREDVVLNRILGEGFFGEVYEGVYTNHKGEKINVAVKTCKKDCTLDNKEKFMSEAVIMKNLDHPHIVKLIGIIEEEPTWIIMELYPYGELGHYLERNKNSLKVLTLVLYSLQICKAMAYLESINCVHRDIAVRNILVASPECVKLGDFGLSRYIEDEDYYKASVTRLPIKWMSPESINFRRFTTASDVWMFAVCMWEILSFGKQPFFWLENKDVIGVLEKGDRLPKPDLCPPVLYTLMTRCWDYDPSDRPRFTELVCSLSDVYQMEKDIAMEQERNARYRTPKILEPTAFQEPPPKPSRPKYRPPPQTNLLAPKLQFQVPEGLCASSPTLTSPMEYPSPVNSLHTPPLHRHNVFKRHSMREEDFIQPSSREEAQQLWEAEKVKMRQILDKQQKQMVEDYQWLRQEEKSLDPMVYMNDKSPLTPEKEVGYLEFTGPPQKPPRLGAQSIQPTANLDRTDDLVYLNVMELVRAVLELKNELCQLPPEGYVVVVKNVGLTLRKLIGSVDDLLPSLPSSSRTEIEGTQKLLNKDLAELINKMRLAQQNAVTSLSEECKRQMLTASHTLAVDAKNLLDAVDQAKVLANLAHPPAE
Experimental: as §1

various enzymes [5] = biological target: various enzymes (Homo sapiens, UniProt P06241); conditions: compound 1 uM
Experimental: as §1

various enzymes [6] = biological target: various enzymes (Homo sapiens, UniProt P07332); conditions: compound 1 uM
Experimental: as §1

various enzymes [7] = biological target: various enzymes (Homo sapiens, UniProt O75914); conditions: compound 1 uM
Experimental: as §1

various enzymes [8] = biological target: various enzymes (Homo sapiens, UniProt Q9Y616); conditions: compound 1 uM
Experimental: as §1

various enzymes [9] = biological target: various enzymes (Homo sapiens, UniProt P35968); conditions: compound 1 uM
Experimental: as §1

various enzymes [10] = biological target: various enzymes (Homo sapiens, UniProt P06239); conditions: compound 1 uM
Sequence of various enzymes (Homo sapiens, UniProt P06239) (P06239 whole entry): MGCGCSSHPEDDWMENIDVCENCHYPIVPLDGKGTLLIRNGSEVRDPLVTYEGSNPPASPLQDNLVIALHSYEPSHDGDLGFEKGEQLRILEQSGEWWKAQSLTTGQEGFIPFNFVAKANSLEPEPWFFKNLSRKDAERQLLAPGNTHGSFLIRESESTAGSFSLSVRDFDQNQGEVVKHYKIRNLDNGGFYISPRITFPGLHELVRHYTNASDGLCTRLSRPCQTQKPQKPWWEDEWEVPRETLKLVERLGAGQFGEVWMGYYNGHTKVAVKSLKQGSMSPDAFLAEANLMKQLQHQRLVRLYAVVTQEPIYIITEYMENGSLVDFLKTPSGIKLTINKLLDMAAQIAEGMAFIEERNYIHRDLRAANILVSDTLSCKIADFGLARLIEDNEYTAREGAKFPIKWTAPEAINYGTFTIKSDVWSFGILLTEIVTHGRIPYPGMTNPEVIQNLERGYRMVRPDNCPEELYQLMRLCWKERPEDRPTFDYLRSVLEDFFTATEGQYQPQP
Experimental: as §1

various enzymes [11] = biological target: various enzymes (Homo sapiens, UniProt Q9NSY1); conditions: compound 1 uM
Experimental: as §1

various enzymes [12] = biological target: various enzymes (Homo sapiens, UniProt P51451); conditions: compound 1 uM
Experimental: as §1

various enzymes [13] = biological target: various enzymes (Homo sapiens, UniProt P06213); conditions: compound 1 uM
Experimental: as §1

various enzymes [14] = biological target: various enzymes (Homo sapiens, UniProt Q8IVW4); conditions: compound 1 uM
Experimental: as §1

various enzymes [15] = biological target: various enzymes (Homo sapiens, UniProt P43403); conditions: compound 1 uM
Experimental: as §1

various enzymes [16] = biological target: various enzymes (Homo sapiens, UniProt Q13546); conditions: compound 1 uM
Experimental: as §1

various enzymes [17] = biological target: various enzymes (Homo sapiens, UniProt P31152); conditions: compound 1 uM
Experimental: as §1

various enzymes [18] = biological target: various enzymes (Homo sapiens, UniProt P53778); conditions: compound 1 uM
Experimental: as §1

various enzymes [19] = biological target: various enzymes (Homo sapiens, UniProt O43353); conditions: compound 1 uM
Experimental: as §1

various enzymes [20] = biological target: various enzymes (Homo sapiens, UniProt P29322); conditions: compound 1 uM
Experimental: as §1

various enzymes [21] = biological target: various enzymes (Homo sapiens, UniProt Q14004); conditions: compound 1 uM
Experimental: as §1

various enzymes [22] = biological target: various enzymes (Homo sapiens, UniProt Q9Y3S1); conditions: compound 1 uM
Experimental: as §1

various enzymes [23] = biological target: various enzymes (Homo sapiens, UniProt P16234); conditions: compound 1 uM
Experimental: as §1

various enzymes [24] = biological target: various enzymes (Homo sapiens, UniProt P57058); conditions: compound 1 uM
Experimental: as §1

various enzymes [25] = biological target: various enzymes (Homo sapiens, UniProt Q99558); conditions: compound 1 uM
Experimental: as §1

various enzymes [26] = biological target: various enzymes (Homo sapiens, UniProt P0C264); conditions: compound 1 uM
Sequence of various enzymes (Homo sapiens, UniProt P0C264) (P0C264 whole entry): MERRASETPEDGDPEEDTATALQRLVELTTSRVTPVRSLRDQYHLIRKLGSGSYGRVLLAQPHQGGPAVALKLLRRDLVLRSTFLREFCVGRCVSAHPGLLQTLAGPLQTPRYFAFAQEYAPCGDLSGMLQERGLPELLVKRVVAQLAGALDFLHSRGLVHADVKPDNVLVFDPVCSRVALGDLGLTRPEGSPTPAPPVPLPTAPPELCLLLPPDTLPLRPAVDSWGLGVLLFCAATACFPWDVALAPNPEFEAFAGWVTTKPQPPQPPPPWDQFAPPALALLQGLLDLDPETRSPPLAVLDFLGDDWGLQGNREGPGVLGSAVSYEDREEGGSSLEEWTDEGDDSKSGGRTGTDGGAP
Experimental: as §1

various enzymes [27] = biological target: various enzymes (Homo sapiens, UniProt Q05655); conditions: compound 1 uM
Experimental: as §1

various enzymes [28] = biological target: various enzymes (Homo sapiens, UniProt Q8N568); conditions: compound 1 uM
Experimental: as §1

various enzymes [29] = biological target: various enzymes (Homo sapiens, UniProt O96013); conditions: compound 1 uM
Experimental: as §1

various enzymes [30] = biological target: various enzymes (Homo sapiens, UniProt Q04912); conditions: compound 1 uM
Experimental: as §1

various enzymes [31] = biological target: various enzymes (Homo sapiens, UniProt Q15349); conditions: compound 1 uM
Sequence of various enzymes (Homo sapiens, UniProt Q15349) (Q15349 whole entry): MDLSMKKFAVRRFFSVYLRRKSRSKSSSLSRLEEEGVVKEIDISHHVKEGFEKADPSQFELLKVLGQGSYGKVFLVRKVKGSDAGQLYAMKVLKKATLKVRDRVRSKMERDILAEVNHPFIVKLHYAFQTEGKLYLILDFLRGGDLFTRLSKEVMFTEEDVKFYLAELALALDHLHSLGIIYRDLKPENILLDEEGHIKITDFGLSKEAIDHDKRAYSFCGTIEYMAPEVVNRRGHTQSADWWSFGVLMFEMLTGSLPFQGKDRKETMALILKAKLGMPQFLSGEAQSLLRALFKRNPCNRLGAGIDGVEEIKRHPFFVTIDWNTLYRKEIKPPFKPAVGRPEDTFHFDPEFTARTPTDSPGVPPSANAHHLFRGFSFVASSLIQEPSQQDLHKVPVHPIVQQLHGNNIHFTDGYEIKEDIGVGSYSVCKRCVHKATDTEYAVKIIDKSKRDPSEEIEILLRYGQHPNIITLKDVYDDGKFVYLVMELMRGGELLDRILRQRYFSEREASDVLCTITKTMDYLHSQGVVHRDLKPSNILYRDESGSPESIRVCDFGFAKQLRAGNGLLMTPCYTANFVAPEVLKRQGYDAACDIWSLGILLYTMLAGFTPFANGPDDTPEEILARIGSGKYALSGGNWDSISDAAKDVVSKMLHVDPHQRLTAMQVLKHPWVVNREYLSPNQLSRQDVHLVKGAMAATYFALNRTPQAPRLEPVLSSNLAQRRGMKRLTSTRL
Experimental: as §1

various enzymes [32] = biological target: various enzymes (Homo sapiens, UniProt Q13705); conditions: compound 1 uM
Experimental: as §1

various enzymes [33] = biological target: various enzymes (Homo sapiens, UniProt Q86V86); conditions: compound 1 uM
Experimental: as §1

various enzymes [34] = biological target: various enzymes (Homo sapiens, UniProt P49761); conditions: compound 1 uM
Experimental: as §1

various enzymes [35] = biological target: various enzymes (Homo sapiens, UniProt O95819); conditions: compound 1 uM
Sequence of various enzymes (Homo sapiens, UniProt O95819) (O95819 whole entry): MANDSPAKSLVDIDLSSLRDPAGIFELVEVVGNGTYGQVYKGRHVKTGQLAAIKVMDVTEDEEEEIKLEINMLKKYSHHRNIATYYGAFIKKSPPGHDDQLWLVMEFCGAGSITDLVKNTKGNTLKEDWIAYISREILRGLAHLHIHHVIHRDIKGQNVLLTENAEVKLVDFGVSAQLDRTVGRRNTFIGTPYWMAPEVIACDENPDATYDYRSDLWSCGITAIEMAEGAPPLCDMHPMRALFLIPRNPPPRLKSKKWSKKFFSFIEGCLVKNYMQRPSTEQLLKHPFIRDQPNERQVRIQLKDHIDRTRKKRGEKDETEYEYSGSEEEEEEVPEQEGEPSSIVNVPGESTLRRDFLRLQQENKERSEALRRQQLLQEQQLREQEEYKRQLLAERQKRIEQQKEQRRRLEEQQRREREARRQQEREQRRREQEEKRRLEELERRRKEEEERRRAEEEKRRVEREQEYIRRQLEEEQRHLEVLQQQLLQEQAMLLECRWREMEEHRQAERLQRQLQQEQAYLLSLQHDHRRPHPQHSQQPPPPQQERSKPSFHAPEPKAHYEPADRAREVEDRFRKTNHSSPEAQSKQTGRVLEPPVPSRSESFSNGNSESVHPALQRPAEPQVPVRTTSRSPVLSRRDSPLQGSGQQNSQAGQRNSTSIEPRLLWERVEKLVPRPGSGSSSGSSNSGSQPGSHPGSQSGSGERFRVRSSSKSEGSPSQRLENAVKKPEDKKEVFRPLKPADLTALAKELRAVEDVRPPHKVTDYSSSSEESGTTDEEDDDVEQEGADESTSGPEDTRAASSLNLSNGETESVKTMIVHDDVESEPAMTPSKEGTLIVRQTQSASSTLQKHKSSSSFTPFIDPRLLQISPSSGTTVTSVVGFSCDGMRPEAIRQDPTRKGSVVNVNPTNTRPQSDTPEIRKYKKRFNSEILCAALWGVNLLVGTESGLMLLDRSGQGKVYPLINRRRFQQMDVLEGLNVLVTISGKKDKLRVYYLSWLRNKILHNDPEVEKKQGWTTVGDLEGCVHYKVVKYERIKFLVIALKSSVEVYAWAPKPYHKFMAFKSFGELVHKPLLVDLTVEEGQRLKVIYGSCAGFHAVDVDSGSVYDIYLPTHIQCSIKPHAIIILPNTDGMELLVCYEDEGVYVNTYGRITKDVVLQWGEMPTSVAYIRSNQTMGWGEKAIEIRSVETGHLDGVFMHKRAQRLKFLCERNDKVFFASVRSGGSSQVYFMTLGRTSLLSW
Experimental: as §1

various enzymes [36] = biological target: various enzymes (Homo sapiens, UniProt P41240); conditions: compound 1 uM
Experimental: as §1

various enzymes [37] = biological target: various enzymes (Homo sapiens, UniProt P51955); conditions: compound 1 uM
Experimental: as §1

various enzymes [38] = biological target: various enzymes (Homo sapiens, UniProt Q32MK0); conditions: compound 1 uM
Experimental: as §1

various enzymes [39] = biological target: various enzymes (Homo sapiens, UniProt P10721, V559D/V654A)
Experimental: as §1

SMILES: CC(C)N1Cc2nn(C)cc2-c2cnc3[nH]cc(c3c2)-c2cn(nc2C(F)(F)F)CCCC1=O [Compound 45, (Z)-5-isopropyl-31-methyl-13-(trifluoromethyl)-11H,21H,31H-5-aza-2(3,5)-pyrrolo[2,3-b]pyridina-1(4,1),3(4,3)-dipyrazolacyclononaphan-6-one]
- Ambit profiling: CSNK1G1 (various enzymes [1]): 100
- Ambit profiling: ABL1(F317L)-nonphosphorylated (various enzymes [2]): 55
- Ambit profiling: ABL1(F317L)-phosphorylated (various enzymes [2]): 25
- Ambit profiling: MAP3K3 (various enzymes [3]): 0.35
- Ambit profiling: PYK2 (various enzymes [4]): 30
- Ambit profiling: FYN (various enzymes [5]): 39
- Ambit profiling: FES (various enzymes [6]): 74
- Ambit profiling: PAK3 (various enzymes [7]): 12
- Ambit profiling: IRAK3 (various enzymes [8]): 2.6
- Ambit profiling: VEGFR2 (various enzymes [9]): 2
- Ambit profiling: LCK (various enzymes [10]): 0.65
- Ambit profiling: BIKE (various enzymes [11]): 1.2
- Ambit profiling: BLK (various enzymes [12]): 3.7
- Ambit profiling: INSR (various enzymes [13]): 43
- Ambit profiling: CDKL3 (various enzymes [14]): 100
- Ambit profiling: ZAP70 (various enzymes [15]): 83
- Ambit profiling: RIPK1 (various enzymes [16]): 85
- Ambit profiling: ERK4 (various enzymes [17]): 100
- Ambit profiling: p38-gamma (various enzymes [18]): 74
- Ambit profiling: RIPK2 (various enzymes [19]): 12
- Ambit profiling: EPHA8 (various enzymes [20]): 8.7
- Ambit profiling: CDC2L5 (various enzymes [21]): 99
- Ambit profiling: WNK2 (various enzymes [22]): 64
- Ambit profiling: PDGFRA (various enzymes [23]): 11
- Ambit profiling: HUNK (various enzymes [24]): 16
- Ambit profiling: NIK (various enzymes [25]): 94
- Ambit profiling: SgK110 (various enzymes [26]): 98
- Ambit profiling: PRKCD (various enzymes [27]): 71
- Ambit profiling: DCAMKL2 (various enzymes [28]): 100
- Ambit profiling: PAK4 (various enzymes [29]): 76
- Ambit profiling: MST1R (various enzymes [30]): 70
- Ambit profiling: RSK3(Kin.Dom.1-N-terminal) (various enzymes [31]): 4.7
- Ambit profiling: RSK3(Kin.Dom.2-C-terminal) (various enzymes [31]): 96
- Ambit profiling: ACVR2B (various enzymes [32]): 79
- Ambit profiling: PIM3 (various enzymes [33]): 94
- Ambit profiling: CLK3 (various enzymes [34]): 33
- Ambit profiling: MAP4K4 (various enzymes [35]): 3.5
- Ambit profiling: CSK (various enzymes [36]): 3.9
- Ambit profiling: NEK2 (various enzymes [37]): 49
- Ambit profiling: MLCK (various enzymes [38]): 99
- Ambit profiling: KIT(V559D, V654A) (various enzymes [39]; compound 1 uM): 100

SMILES: COc1c2c(nn1C)CN(C(C)C)C(=O)CCCn1cc(c(C(F)(F)F)n1)-c1c[nH]c3ncc-2cc13 [Compound 50, (Z)-5-isopropyl-35-methoxy-31-methyl-13-(trifluoromethyl)-11H,21H,31H-5-aza-2(3,5)-pyrrolo[2,3-b]pyridina-1(4,1),3(4,3)-dipyrazolacyclononaphan-6-one]
- Ambit profiling: CSNK1G1 (various enzymes [1]): 81
- Ambit profiling: ABL1(F317L)-nonphosphorylated (various enzymes [2]): 35
- Ambit profiling: ABL1(F317L)-phosphorylated (various enzymes [2]): 2.5
- Ambit profiling: MAP3K3 (various enzymes [3]): 0.3
- Ambit profiling: PYK2 (various enzymes [4]): 19
- Ambit profiling: FYN (various enzymes [5]): 28
- Ambit profiling: FES (various enzymes [6]): 31
- Ambit profiling: PAK3 (various enzymes [7]): 24
- Ambit profiling: IRAK3 (various enzymes [8]): 15
- Ambit profiling: VEGFR2 (various enzymes [9]): 0.8
- Ambit profiling: LCK (various enzymes [10]): 1.9
- Ambit profiling: BIKE (various enzymes [11]): 10
- Ambit profiling: BLK (various enzymes [12]): 1.6
- Ambit profiling: INSR (various enzymes [13]): 22
- Ambit profiling: CDKL3 (various enzymes [14]): 80
- Ambit profiling: ZAP70 (various enzymes [15]): 100
- Ambit profiling: RIPK1 (various enzymes [16]): 59
- Ambit profiling: ERK4 (various enzymes [17]): 82
- Ambit profiling: p38-gamma (various enzymes [18]): 75
- Ambit profiling: RIPK2 (various enzymes [19]): 11
- Ambit profiling: EPHA8 (various enzymes [20]): 26
- Ambit profiling: CDC2L5 (various enzymes [21]): 89
- Ambit profiling: WNK2 (various enzymes [22]): 46
- Ambit profiling: PDGFRA (various enzymes [23]): 5.6
- Ambit profiling: HUNK (various enzymes [24]): 8
- Ambit profiling: NIK (various enzymes [25]): 86
- Ambit profiling: SgK110 (various enzymes [26]): 99
- Ambit profiling: PRKCD (various enzymes [27]): 43
- Ambit profiling: DCAMKL2 (various enzymes [28]): 90
- Ambit profiling: PAK4 (various enzymes [29]): 91
- Ambit profiling: MST1R (various enzymes [30]): 42
- Ambit profiling: RSK3(Kin.Dom.1-N-terminal) (various enzymes [31]): 4
- Ambit profiling: RSK3(Kin.Dom.2-C-terminal) (various enzymes [31]): 80
- Ambit profiling: ACVR2B (various enzymes [32]): 92
- Ambit profiling: PIM3 (various enzymes [33]): 91
- Ambit profiling: CLK3 (various enzymes [34]): 26
- Ambit profiling: MAP4K4 (various enzymes [35]): 3
- Ambit profiling: CSK (various enzymes [36]): 4.7
- Ambit profiling: NEK2 (various enzymes [37]): 68
- Ambit profiling: MLCK (various enzymes [38]): 82
- Ambit profiling: KIT(V559D, V654A) (various enzymes [39]): 70
